Measurements published in patent US20070129426A1, “Therapeutic drugs for arthritis” (Shanghai Ambrosia Pharmaceutical Co., Ltd., priority 2003, published 2007).

What was measured:
[1] = system: acute inflammation of mice ear caused by dimethylbenzene; assay: Mice ear inflammation caused by dimethylbenzene; format: in vivo, Kunming mice; conditions: for Difference (mg) between left and right ear: 4 days, 2 h after dimethylbenzene, n=10
Experimental: Experimental animal: Kunming mice, body weight 18-22 g.
Method of administration: intraperitoneal injection. The doses of wedelolactone were 12.5 mg/kg and 25 mg/kg, respectively; the negative control used 0.5% CMC; the positive control used ibuprofen (25 mg/kg).
Method of experiment: The animals were divided randomly into 4 groups based on their body weights, 10 mice each group. The mice were administered with the test compound for 4 continuous days. On Day 4, both sides of the right ears of the mice were daubed evenly with 50 μl dimethylbenzene 2 hours after the administration. The left ears were not treated. The mice were left for 2 hours and then sacrificed by cervical dislocation. The ear specimens were obtained by punching both ears with a 8 mm hole-puncher. The specimens were weighed and the differences between the left and the right ears were used to evaluate the effect of the compound on the inflammation.

[2] = system: adjuvant-induced arthritis of rats; assay: Adjuvant-induced arthritis of rats; format: in vivo, Male Wistar rats; conditions: for Left front paw thickness, Day 5 / Right front paw thickness, Day 5 / Right hind paw thickness, Day 5 / Right hind paw volume, Day 5 / Left hind paw thickness, Day 5 / Left hind paw volume, Day 5: day 5 after administration; for Left hind paw thickness, Day 5 / Left hind paw volume, Day 5 / Left hind paw thickness, Day 10 / Left hind paw volume, Day 10 / Left hind paw thickness, Day 15 / Left hind paw volume, Day 15 / Left hind paw thickness, Day 19 / Left hind paw volume, Day 19: adjuvant-injected paw; for Left front paw thickness, Day 10 / Right front paw thickness, Day 10 / Right hind paw thickness, Day 10 / Right hind paw volume, Day 10 / Left hind paw thickness, Day 10 / Left hind paw volume, Day 10: day 10 after administration; for Left front paw thickness, Day 15 / Right front paw thickness, Day 15 / Right hind paw thickness, Day 15 / Right hind paw volume, Day 15 / Left hind paw thickness, Day 15 / Left hind paw volume, Day 15: day 15 after administration; for Left front paw thickness, Day 19 / Right front paw thickness, Day 19 / Right hind paw thickness, Day 19 / Right hind paw volume, Day 19 / Left hind paw thickness, Day 19 / Left hind paw volume, Day 19: day 19 after administration
Experimental: Experimental animal: Male Wistar rats. Body weights were about 150 g.
Method of administration: intraperitoneal injection. The dose of wedelolactone was 0.25 mg/kg or 12.5 mg/kg, prepared in 0.5% CMC. The dose of methotrexate (MTX) is 0.2 mg/kg.
Method of experiment: The animals were divided randomly into 4 groups based on their body weights. They were adapted for 3 days before experiments. The left hind planta of the rats were injected subcutaneously with 0.1 ml CFA emulsion to induce inflammation. On the Day 10, after the administration of the adjuvant, the rats were injected intraperitoneally with 5 ml/kg test compound wedelolactone for 19 continuous days. On and after the day of administration of the adjuvant, the change of thickness of the four rat paws was measured daily using a vernier caliper, and the volume of the back paw were measured using a Plethysmometer. The data from day 5, 10, 15, and 19 after administration were used for statistic analyses.

[3] = system: collagen-induced rat arthritis; assay: Collagen-induced rat arthritis (joint surface temperature, inflammation score); format: in vivo, Male Wistar rats; conditions: for inflammation score, Day 10 / inflammation score, Day 20 / inflammation score, Day 30: highest total score 16 points; for Joint surface temperature difference (° C.), Day 10: day 10 after first immunization; for Joint surface temperature difference (° C.), Day 20: day 20 after first immunization; for Joint surface temperature difference (° C.), Day 30: day 30 after first immunization
Experimental: (§1) Experimental animal: Male Wistar rats. Body weights were about 120 g.
(§2) Administration method: intraperitoneal injection. The dose of wedelolactone is 6 or 12 mg/kg. Negative control used 0.5% CMC.
Experimental methods: 1). Preparation of type-II collagen. The fresh calf cartilages were ground at 4° C., immersed and washed with Tris-HCL2. The left residue was digested with pepsin. The supernatant was collected and salted out, followed by chromatography with DE-52 column to obtain type-II collagen. The collagen were dissolved in glacial acetic acid and mixed with Freund's adjuvant by grounding. Each of the animals, except the controls, was subcutaneously injected with a total of 2.5 mg/kg collagen at multiple sites of the tail root and back neck. 7 days thereafter, the animals were boostered by subcutaneous administration with 1.0 mg/kg collagen in the tail root and back neck. The immunized animals were divided randomly into 4 groups based on their body weight, 10 mice in each group. The four groups were modeling blank group, modeling control group, low dose wedelolactone group, and high dose wedelolactone group. The daily administration started at day 10 after the first immunization for 3 weeks continuously. The effects of the drug on the rat rheumatoid arthritis and the delayed-hypersensitivity were recorded. Starting from day 10 after the first immunization, the following data were recorded every 10 days: A) arthritis surface temperature (the surface temperature of both hind leg joints were measured by using a digital temperature recorder, and the temperature differences before and after the immunization was calculated). B) arthritis score (arthritis was scored following the method described in the literature. 1 point: inflammation in one area of paws or planta; 2 points: inflammation in more than two areas of paws or planta; 3 points: mild inflammation in the whole legs; 4 points: severe inflammation causing joint rigidity, deformation and dysfunction. The highest score for each paw is 4 points. The highest total score for each rat is 16 points. C) Delayed-hypersensitivity measurement. At day 24, 10 μl type II collagen containing solution was injected subcutaneously in the back of the right ear of each rat. The thickness of the ear before and 48 hr after the injection was measured.

[4] = system: delayed hypersensitivity of the collagen II-induced arthritic rats; assay: Delayed hypersensitivity of collagen II-induced arthritic rats; format: in vivo, Male Wistar rats; conditions: 48 hr after type II collagen injection
Experimental: as §1, §2
Experimental methods: 1). Preparation of type-II collagen. The fresh calf cartilages were ground at 4° C., immersed and washed with Tris-HCL2. The left residue was digested with pepsin. The supernatant was collected and salted out, followed by chromatography with DE-52 column to obtain type-II collagen. The collagen were dissolved in glacial acetic acid and mixed with Freund's adjuvant by grounding. Each of the animals, except the controls, was subcutaneously injected with a total of 2.5 mg/kg collagen at multiple sites of the tail root and back neck. […] The effects of the drug on the rat rheumatoid arthritis and the delayed-hypersensitivity were recorded. Starting from day 10 after the first immunization, the following data were recorded every 10 days: A) arthritis surface temperature (the surface temperature of both hind leg joints were measured by using a digital temperature recorder, and the temperature differences before and after the immunization was calculated). B) arthritis score (arthritis was scored following the method described in the literature. […] The thickness of the ear before and 48 hr after the injection was measured.

COc1cc(O)c2c(c1)oc(=O)c1c3cc(O)c(O)cc3oc21 [wedelolactone]
Difference (mg) between left and right ear ([1]; 12.5 mg/kg i.p.): 11.3 ± 3.6 mg | Difference (mg) between left and right ear ([1]; 25 mg/kg i.p.): 10.9 ± 4.6 mg | Inhibition of mice ear inflammation caused by dimethylbenzene ([1]; 12.5 and 25 mg/kg i.p.): could inhibit the inflammation of the mice ear caused by dimethylbenzene | Primary inflammation of the left foot and secondary inflammation of the right foot (FIG. 4) ([2]; 0.25 mg/kg): prone to be alleviated | Left front paw thickness, Day 5 ([2]; 0.25 mg/kg i.p.): 4.20 ± 0.11 mm | Right front paw thickness, Day 5 ([2]; 0.25 mg/kg i.p.): 4.13 ± 0.15 mm | Right hind paw thickness, Day 5 ([2]; 0.25 mg/kg i.p.): 5.05 ± 0.24 mm | Right hind paw volume, Day 5 ([2]; 0.25 mg/kg i.p.): 1.18 ± 0.05 mL | Left hind paw thickness, Day 5 ([2]; 0.25 mg/kg i.p.): 7.10 ± 0.83 mm | Left hind paw volume, Day 5 ([2]; 0.25 mg/kg i.p.): 1.85 ± 0.24 mL | Left front paw thickness, Day 10 ([2]; 0.25 mg/kg i.p.): 4.71 ± 0.24 mm | Right front paw thickness, Day 10 ([2]; 0.25 mg/kg i.p.): 4.66 ± 0.09 mm | Right hind paw thickness, Day 10 ([2]; 0.25 mg/kg i.p.): 5.28 ± 0.38 mm | Right hind paw volume, Day 10 ([2]; 0.25 mg/kg i.p.): 1.16 ± 0.08 mL | Left hind paw thickness, Day 10 ([2]; 0.25 mg/kg i.p.): 8.18 ± 1.22 mm | Left hind paw volume, Day 10 ([2]; 0.25 mg/kg i.p.): 2.38 ± 0.30 mL | Left front paw thickness, Day 15 ([2]; 0.25 mg/kg i.p.): 4.61 ± 0.10 mm | Right front paw thickness, Day 15 ([2]; 0.25 mg/kg i.p.): 4.54 ± 0.15 mm | Right hind paw thickness, Day 15 ([2]; 0.25 mg/kg i.p.): 5.15 ± 0.35 mm | Right hind paw volume, Day 15 ([2]; 0.25 mg/kg i.p.): 1.29 ± 0.13 mL | Left hind paw thickness, Day 15 ([2]; 0.25 mg/kg i.p.): 8.51 ± 0.91 mm | Left hind paw volume, Day 15 ([2]; 0.25 mg/kg i.p.): 2.63 ± 0.37 mL | Left front paw thickness, Day 19 ([2]; 0.25 mg/kg i.p.): 4.64 ± 0.17 mm | Right front paw thickness, Day 19 ([2]; 0.25 mg/kg i.p.): 4.59 ± 0.15 mm | Right hind paw thickness, Day 19 ([2]; 0.25 mg/kg i.p.): 5.23 ± 0.23 mm | Right hind paw volume, Day 19 ([2]; 0.25 mg/kg i.p.): 1.36 ± 0.12 mL | Left hind paw thickness, Day 19 ([2]; 0.25 mg/kg i.p.): 8.49 ± 1.06 mm | Left hind paw volume, Day 19 ([2]; 0.25 mg/kg i.p.): 2.61 ± 0.42 mL | Primary inflammation of the left foot and secondary inflammation of the right foot (FIG. 3) ([2]; 12.5 mg/kg): alleviated | Left front paw thickness, Day 5 ([2]; 12.5 mg/kg i.p.): 4.11 ± 0.11 mm | Right front paw thickness, Day 5 ([2]; 12.5 mg/kg i.p.): 4.01 ± 0.17 mm | Right hind paw thickness, Day 5 ([2]; 12.5 mg/kg i.p.): 4.95 ± 0.27 mm | Right hind paw volume, Day 5 ([2]; 12.5 mg/kg i.p.): 1.10 ± 0.10 mL | Left hind paw thickness, Day 5 ([2]; 12.5 mg/kg i.p.): 7.13 ± 0.96 mm | Left hind paw volume, Day 5 ([2]; 12.5 mg/kg i.p.): 1.64 ± 0.31 mL | Left front paw thickness, Day 10 ([2]; 12.5 mg/kg i.p.): 4.03 ± 0.13 mm | Right front paw thickness, Day 10 ([2]; 12.5 mg/kg i.p.): 3.95 ± 0.12 mm | Right hind paw thickness, Day 10 ([2]; 12.5 mg/kg i.p.): 5.05 ± 0.25 mm | Right hind paw volume, Day 10 ([2]; 12.5 mg/kg i.p.): 1.03 ± 0.10 mL | Left hind paw thickness, Day 10 ([2]; 12.5 mg/kg i.p.): 8.09 ± 1.05 mm | Left hind paw volume, Day 10 ([2]; 12.5 mg/kg i.p.): 2.14 ± 0.45 mL | Left front paw thickness, Day 15 ([2]; 12.5 mg/kg i.p.): 4.11 ± 0.16 mm | Right front paw thickness, Day 15 ([2]; 12.5 mg/kg i.p.): 4.11 ± 0.16 mm | Right hind paw thickness, Day 15 ([2]; 12.5 mg/kg i.p.): 5.20 ± 0.23 mm | Right hind paw volume, Day 15 ([2]; 12.5 mg/kg i.p.): 1.24 ± 0.16 mL | Left hind paw thickness, Day 15 ([2]; 12.5 mg/kg i.p.): 8.44 ± 1.63 mm | Left hind paw volume, Day 15 ([2]; 12.5 mg/kg i.p.): 2.42 ± 0.62 mL | Left front paw thickness, Day 19 ([2]; 12.5 mg/kg i.p.): 4.04 ± 0.14 mm | Right front paw thickness, Day 19 ([2]; 12.5 mg/kg i.p.): 4.04 ± 0.07 mm | Right hind paw thickness, Day 19 ([2]; 12.5 mg/kg i.p.): 4.98 ± 0.10 mm | Right hind paw volume, Day 19 ([2]; 12.5 mg/kg i.p.): 1.19 ± 0.08 mL | Left hind paw thickness, Day 19 ([2]; 12.5 mg/kg i.p.): 8.53 ± 1.33 mm | Left hind paw volume, Day 19 ([2]; 12.5 mg/kg i.p.): 2.46 ± 0.75 mL | Inhibition of rat adjuvant arthritis ([2]; 0.25 or 12.5 mg/kg i.p., 19 days): could effectively inhibit rat adjuvant arthritis | inflammation score, Day 10 ([3]; 6 mg/kg i.p.): 4.00 ± 2.02 | Joint surface temperature difference (° C.), Day 10 ([3]; 6 mg/kg i.p.): 1.42 ± 0.74 °C | inflammation score, Day 20 ([3]; 6 mg/kg i.p.): 3.10 ± 1.45 | Joint surface temperature difference (° C.), Day 20 ([3]; 6 mg/kg i.p.): 0.83 ± 0.44 °C | inflammation score, Day 30 ([3]; 6 mg/kg i.p.): 2.7 ± 1.35 | Joint surface temperature difference (° C.), Day 30 ([3]; 6 mg/kg i.p.): 0.72 ± 0.40 °C | inflammation score, Day 10 ([3]; 12 mg/kg i.p.): 4.10 ± 2.08 | Joint surface temperature difference (° C.), Day 10 ([3]; 12 mg/kg i.p.): 1.36 ± 0.50 °C | inflammation score, Day 20 ([3]; 12 mg/kg i.p.): 2.00 ± 1.41 | Joint surface temperature difference (° C.), Day 20 ([3]; 12 mg/kg i.p.): 0.73 ± 0.45 °C | inflammation score, Day 30 ([3]; 12 mg/kg i.p.): 1.40 ± 1.02 | Joint surface temperature difference (° C.), Day 30 ([3]; 12 mg/kg i.p.): 0.48 ± 0.39 °C | Inhibition of collagen-induced rat arthritis ([3]; 6 or 12 mg/kg i.p., 3 weeks): can effectively inhibit the collagen-induced rat arthritis | Increased thickness of the right ear (mm) ([4]; 6 mg/kg i.p.): 0.231 ± 0.113 mm | Increased thickness of the right ear (mm) ([4]; 12 mg/kg i.p.): 0.194 ± 0.115 mm
